Each structure is given as a SMILES string. In brackets after ≈: the same amount, converted by molar mass. Activity calls are given as the source filed them. The rule behind the calls is not given here. Where only a bound is given, the exact number is not on record here.

Format in all cases: functional
Assay [1] relates to Staphylococcus aureus. Kind of assay: Antimicrobial activity against Staphylococcus aureus MTCC 96 assessed as inhibition zone measured after 24 hrs incubation by well diffusion method.
In assay [2] the test system is Raoultella planticola. Kind of assay: Antimicrobial activity against Klebsiella planticola MTCC 530 assessed as inhibition zone measured after 24 hrs incubation by well diffusion method.
In assay [3] the test system is Escherichia coli. Briefly: Antimicrobial activity against Escherichia coli MTCC 739 assessed as inhibition zone measured after 24 hrs incubation by well diffusion method.
Another assay has as its system Pseudomonas aeruginosa. Briefly: Antimicrobial activity against Pseudomonas aeruginosa MTCC 2453 assessed as inhibition zone measured after 24 hrs incubation by well diffusion method.
For assay [4], the system named is Bacillus subtilis. Kind of assay: Antimicrobial activity against Bacillus subtilis MTCC 121 assessed as inhibition zone measured after 24 hrs incubation by well diffusion method.
The subject of assay [5] is Micrococcus luteus. Briefly: Antimicrobial activity against Micrococcus luteus MTCC 2470 assessed as inhibition zone measured after 24 hrs incubation by well diffusion method.
The subject of assay [6] is Staphylococcus aureus. Briefly: Antimicrobial activity against Staphylococcus aureus MLS-16 MTCC 2940 assessed as inhibition zone measured after 24 hrs incubation by well diffusion method.
A further assay has as its system Candida albicans. Briefly: Antimicrobial activity against Candida albicans MTCC 3017 assessed as inhibition zone measured after 24 hrs incubation by well diffusion method.
Assay [7] concerns Escherichia coli. Briefly: Bactericidal activity against Escherichia coli MTCC 739 assessed as bacterial killing after 24 hrs incubation by NCCLS protocol-based broth microdilution method.
The test system of assay [8] is Micrococcus luteus. Kind of assay: Bactericidal activity against Micrococcus luteus MTCC 2470 assessed as bacterial killing after 24 hrs incubation by NCCLS protocol-based broth microdilution method.
Assay [9] concerns Bacillus subtilis. Briefly: Bactericidal activity against Bacillus subtilis MTCC 121 assessed as bacterial killing after 24 hrs incubation by NCCLS protocol-based broth microdilution method.
Assay [10] has as its system Raoultella planticola. Briefly: Bactericidal activity against Klebsiella planticola MTCC 530 assessed as bacterial killing after 24 hrs incubation by NCCLS protocol-based broth microdilution method.

Consider `COC(=O)C1(C#N)Oc2c(c(=O)oc3ccccc23)C1c1ccc(Cl)cc1` (stereo unspecified), for which the MIC in the assay on Staphylococcus aureus [1] is greater than 250 µg/mL; in the assay on Raoultella planticola [2], greater than 250 µg/mL; in the assay on Escherichia coli [3], 62.5 µg/mL (≈ 164 µM); in the assay with Pseudomonas aeruginosa, greater than 250 µg/mL; with Bacillus subtilis [4], greater than 250 µg/mL; in the assay on Micrococcus luteus [5], greater than 250 µg/mL. The MIC in the assay on Staphylococcus aureus [6] and in the assay with Candida albicans was greater than 250 µg/mL throughout.

For the compound `COC(=O)C1(C#N)Oc2c(c(=O)oc3ccccc23)C1c1ccc([N+](=O)[O-])cc1` (stereo unspecified), the MIC in the assay with Staphylococcus aureus [1], in the assay on Raoultella planticola [2], with Escherichia coli [3], in the assay with Pseudomonas aeruginosa, with Bacillus subtilis [4] and with Micrococcus luteus [5] was greater than 250 µg/mL each time. Besides, the MIC in the assay on Staphylococcus aureus [6] and in the assay on Candida albicans was greater than 250 µg/mL throughout.

Take `CCOC(=O)C1(C#N)Oc2c(c(=O)oc3ccccc23)C1c1ccc([N+](=O)[O-])cc1` (stereo unspecified): the MIC in the assay with Staphylococcus aureus [1], with Raoultella planticola [2], with Escherichia coli [3], with Pseudomonas aeruginosa, in the assay on Bacillus subtilis [4] and in the assay on Micrococcus luteus [5] was greater than 250 µg/mL each time. In addition, the MIC with Staphylococcus aureus [6] and with Candida albicans was greater than 250 µg/mL each time.

Turning to `O=C(O)c1cn(C2CC2)c2cc(N3CCNCC3)c(F)cc2c1=O` [CIPROFLOXACIN], the MBC in the assay with Escherichia coli [7], in the assay on Micrococcus luteus [8], in the assay with Bacillus subtilis [9] and in the assay with Raoultella planticola [10] was 1.17 µg/mL (≈ 3.53 µM) in each case. Moreover, the MIC with Staphylococcus aureus [1], in the assay on Raoultella planticola [2], with Escherichia coli [3], in the assay with Pseudomonas aeruginosa, in the assay with Bacillus subtilis [4] and in the assay with Micrococcus luteus [5] was 0.9 µg/mL (≈ 2.72 µM) in each case. Moreover, the MIC with Staphylococcus aureus [6] is 0.9 µg/mL (≈ 2.72 µM).

With `CCOC(=O)C1(C#N)Oc2c(c(=O)oc3ccccc23)C1c1cccc2ccccc12` (stereo unspecified), the MIC in the assay with Staphylococcus aureus [1], with Raoultella planticola [2], in the assay on Escherichia coli [3], with Pseudomonas aeruginosa, in the assay with Bacillus subtilis [4] and in the assay with Micrococcus luteus [5] was greater than 250 µg/mL in each case. Besides, the MIC in the assay with Staphylococcus aureus [6] and with Candida albicans was greater than 250 µg/mL throughout.

For the compound `Clc1ccc(COC(Cn2ccnc2)c2ccc(Cl)cc2Cl)c(Cl)c1` (stereo unspecified) [MICONAZOLE], the MIC entry in the assay on Staphylococcus aureus [1], with Raoultella planticola [2], in the assay with Escherichia coli [3], in the assay with Pseudomonas aeruginosa, in the assay with Bacillus subtilis [4] and with Micrococcus luteus [5] was “inactive” throughout. Also, the MIC entry in the assay on Staphylococcus aureus [6] is “inactive”. Further, in the assay with Candida albicans, the MIC was 7.8 µg/mL (≈ 18.7 µM).

In the case of `COC(=O)C1(C#N)Oc2c(c(=O)oc3ccccc23)C1c1cc(OC)c(OC)c(OC)c1` (stereo unspecified), the MIC in the assay on Staphylococcus aureus [1] is 62.5 µg/mL (≈ 143 µM); with Raoultella planticola [2], greater than 250 µg/mL; in the assay on Escherichia coli [3], greater than 250 µg/mL; with Pseudomonas aeruginosa, greater than 250 µg/mL; in the assay with Bacillus subtilis [4] it was greater than 250 µg/mL; in the assay with Micrococcus luteus [5] it was greater than 250 µg/mL. Moreover, the MIC in the assay with Staphylococcus aureus [6] and with Candida albicans was greater than 250 µg/mL each time.

With `COC(=O)C1(C#N)Oc2c(c(=O)oc3ccccc23)C1c1ccc(O)cc1` (stereo unspecified), the MIC with Staphylococcus aureus [1], in the assay with Raoultella planticola [2], in the assay with Escherichia coli [3], with Pseudomonas aeruginosa, in the assay on Bacillus subtilis [4] and with Micrococcus luteus [5] was greater than 250 µg/mL in each case. In addition, the MIC in the assay on Staphylococcus aureus [6] and with Candida albicans was greater than 250 µg/mL throughout.

On to `COC(=O)C1(C#N)Oc2c(c(=O)oc3ccccc23)C1c1ccc(Cl)cc1Cl` (stereo unspecified), for which the MIC in the assay on Staphylococcus aureus [1], with Raoultella planticola [2], with Escherichia coli [3], with Pseudomonas aeruginosa, in the assay with Bacillus subtilis [4] and in the assay with Micrococcus luteus [5] was greater than 250 µg/mL each time. Also, the MIC in the assay with Staphylococcus aureus [6] and in the assay with Candida albicans was greater than 250 µg/mL each time.

Consider `CCOC(=O)C1(C#N)Oc2c(c(=O)oc3ccccc23)C1c1ccc(C(F)(F)F)cc1` (stereo unspecified), for which the MIC is greater than 250 µg/mL with Staphylococcus aureus [1]; 250 µg/mL (≈ 582 µM) in the assay on Raoultella planticola [2]; greater than 250 µg/mL in the assay with Escherichia coli [3]; greater than 250 µg/mL in the assay with Pseudomonas aeruginosa; 250 µg/mL (≈ 582 µM) with Bacillus subtilis [4]; greater than 250 µg/mL in the assay with Micrococcus luteus [5]. The MIC in the assay on Staphylococcus aureus [6] and with Candida albicans was greater than 250 µg/mL throughout.

`COC(=O)C1(C#N)Oc2c(c(=O)oc3ccccc23)C1c1ccc(C(F)(F)F)cc1` (stereo unspecified): the MIC with Staphylococcus aureus [1], in the assay with Raoultella planticola [2], with Escherichia coli [3], in the assay with Pseudomonas aeruginosa, with Bacillus subtilis [4] and in the assay on Micrococcus luteus [5] was greater than 250 µg/mL in each case. Moreover, the MIC in the assay on Staphylococcus aureus [6] and with Candida albicans was greater than 250 µg/mL throughout.

As for `CCOC(=O)C1(C#N)Oc2c(c(=O)oc3ccc(C)cc23)C1c1ccccc1` (stereo unspecified), the MIC was greater than 250 µg/mL in the assay on Staphylococcus aureus [1]; 250 µg/mL (≈ 666 µM) with Raoultella planticola [2]; greater than 250 µg/mL in the assay with Escherichia coli [3]; greater than 250 µg/mL with Pseudomonas aeruginosa; greater than 250 µg/mL with Bacillus subtilis [4]; greater than 250 µg/mL with Micrococcus luteus [5]. The MIC in the assay on Staphylococcus aureus [6] and with Candida albicans was greater than 250 µg/mL each time.

With `COC(=O)C1(C#N)Oc2c(c(=O)oc3ccccc23)C1c1ccc(C)cc1` (stereo unspecified), the MIC in the assay with Staphylococcus aureus [1] was greater than 250 µg/mL; in the assay with Raoultella planticola [2] it was greater than 250 µg/mL; with Escherichia coli [3] it was greater than 250 µg/mL; in the assay with Pseudomonas aeruginosa, greater than 250 µg/mL; in the assay with Bacillus subtilis [4], greater than 250 µg/mL; with Micrococcus luteus [5], 125 µg/mL (≈ 346 µM). Further, the MIC in the assay on Staphylococcus aureus [6] and in the assay on Candida albicans was greater than 250 µg/mL throughout.

Regarding `CC(C)OC(=O)C1(C#N)Oc2c(c(=O)oc3ccccc23)C1c1ccccc1` (stereo unspecified), the MBC result with Escherichia coli [7] and in the assay on Bacillus subtilis [9] was “inactive” each time. The MIC was 125 µg/mL (≈ 333 µM) in the assay on Staphylococcus aureus [1]; 15.6 µg/mL (≈ 41.6 µM) in the assay on Raoultella planticola [2]; greater than 250 µg/mL in the assay on Escherichia coli [3]; greater than 250 µg/mL in the assay with Pseudomonas aeruginosa; 250 µg/mL (≈ 666 µM) with Bacillus subtilis [4]; 15.6 µg/mL (≈ 41.6 µM) with Micrococcus luteus [5]. Besides, the figures for the MIC in the assay with Staphylococcus aureus [6] and in the assay with Candida albicans were 125 µg/mL (≈ 333 µM) and greater than 250 µg/mL, respectively. In addition, the MBC with Micrococcus luteus [8] and in the assay on Raoultella planticola [10] was 62.5 µg/mL (≈ 166 µM) each time.

For `COC(=O)C1(C#N)Oc2c(c(=O)oc3ccccc23)C1c1ccc(C#N)cc1` (stereo unspecified), the MIC in the assay on Staphylococcus aureus [1], in the assay on Raoultella planticola [2], in the assay on Escherichia coli [3], in the assay with Pseudomonas aeruginosa, with Bacillus subtilis [4] and with Micrococcus luteus [5] was greater than 250 µg/mL each time. The MIC in the assay with Staphylococcus aureus [6] and with Candida albicans was greater than 250 µg/mL each time.

With `COC(=O)C1(C#N)Oc2c(c(=O)oc3ccccc23)C1c1ccc(F)cc1` (stereo unspecified), the MBC with Escherichia coli [7], in the assay on Micrococcus luteus [8], in the assay with Bacillus subtilis [9] and with Raoultella planticola [10] was 62.5 µg/mL (≈ 171 µM) throughout. The MIC in the assay on Staphylococcus aureus [1] was 62.5 µg/mL (≈ 171 µM); in the assay on Raoultella planticola [2], 7.8 µg/mL (≈ 21.4 µM); with Escherichia coli [3], 15.6 µg/mL (≈ 42.7 µM); with Pseudomonas aeruginosa it was greater than 250 µg/mL; in the assay with Bacillus subtilis [4], 7.8 µg/mL (≈ 21.4 µM); with Micrococcus luteus [5] it was 7.8 µg/mL (≈ 21.4 µM). Besides, the MIC in the assay on Staphylococcus aureus [6] and with Candida albicans was 62.5 µg/mL (≈ 171 µM) in each case.

Take `CCOC(=O)C1(C#N)Oc2c(c(=O)oc3ccccc23)C1c1ccccc1` (stereo unspecified): the MIC with Staphylococcus aureus [1], with Raoultella planticola [2], with Escherichia coli [3], in the assay with Pseudomonas aeruginosa, in the assay with Bacillus subtilis [4] and in the assay on Micrococcus luteus [5] was greater than 250 µg/mL throughout. Moreover, the MIC in the assay on Staphylococcus aureus [6] and with Candida albicans was greater than 250 µg/mL each time.

`COC(=O)C1(C#N)Oc2c(c(=O)oc3ccc(C)cc23)C1c1ccccc1` (stereo unspecified): the MIC with Staphylococcus aureus [1], with Raoultella planticola [2], in the assay with Escherichia coli [3], in the assay with Pseudomonas aeruginosa, in the assay with Bacillus subtilis [4] and in the assay with Micrococcus luteus [5] was greater than 250 µg/mL throughout. Moreover, the MIC in the assay on Staphylococcus aureus [6] and in the assay on Candida albicans was greater than 250 µg/mL each time.

For the compound `COC(=O)C1(C#N)Oc2c(c(=O)oc3ccccc23)C1c1ccccc1` (stereo unspecified), the MIC with Staphylococcus aureus [1] is greater than 250 µg/mL; with Raoultella planticola [2] it was greater than 250 µg/mL; with Escherichia coli [3], greater than 250 µg/mL; with Pseudomonas aeruginosa, greater than 250 µg/mL; in the assay with Bacillus subtilis [4], 62.5 µg/mL (≈ 180 µM); in the assay on Micrococcus luteus [5], greater than 250 µg/mL. In addition, the MIC in the assay on Staphylococcus aureus [6] and with Candida albicans was greater than 250 µg/mL throughout.

Take `COC(=O)C1(C#N)Oc2c(c(=O)oc3ccccc23)C1c1ccc(Br)cc1` (stereo unspecified): the MIC is greater than 250 µg/mL in the assay with Staphylococcus aureus [1]; greater than 250 µg/mL in the assay with Raoultella planticola [2]; 12.5 µg/mL (≈ 29.3 µM) with Escherichia coli [3]; greater than 250 µg/mL with Pseudomonas aeruginosa; greater than 250 µg/mL in the assay on Bacillus subtilis [4]; greater than 250 µg/mL with Micrococcus luteus [5]. Besides, the MIC in the assay with Staphylococcus aureus [6] and in the assay with Candida albicans was greater than 250 µg/mL each time.

These data come from ChEMBL document CHEMBL4715763, “A simple, one pot synthesis of furo[3,2-c]chromenes and evaluation of antimicrobial activity” (2016).
